{"source": "paper PMC5958115", "about": "“A novel small molecule chaperone of rod opsin and its potential therapy for retinal degeneration” (Nature Communications, 2018)", "key": {"human rod opsin G106R": {"target": "T1, human rod opsin G106R (Homo sapiens, UniProt P08100, G106R)", "T1 construct": "expressed in transfected cells; host or cells: NIH3T3 cells, transient transfection with pcDNA3.1-hOpsin mutant", "test": "Cell-surface immunostain of rod opsin mutant in transfected NIH3T3 cells", "assay_type": "cell-based", "conditions": "10 µM, 24 h", "method": "(§1) Human rhodopsin cDNA was placed into the pcDNA3.1(+) vector (pcDNA3.1-hOpsin). Site-directed mutagenesis was performed following the QuickChange II site-directed mutagenesis kit (Agilent Technologies Inc.). Primers for the following mutations were as follows: T4R-forward, 5′-[…]-3′; T4R-reverse, 5′-[…]-3′; P53R-forward, 5′-[…]-3′; P53R-reverse, 5′-[…]-3′; G106R-forward, 5′-[…]-3′; G106R-reverse, 5′-[…]-3′; C110Y-forward, 5′-[…]-3′; C110Y-reverse, 5′-[…]-3′; D190N-forward, 5′-[…]-3′; D190N-reverse, 5′-[…]-3′; P267L-forward, 5′-[…]-3′; P267L-reverse, 5′-[…]-3′. DNA vectors with rhodopsin mutations were confirmed by Sanger sequencing. After NIH3T3 cells were transfected with pcDNA3.1-hOpsin or its mutants for 24 h, these cells were resuspended and seeded into a 96-well plate with an optic bottom (Corning). […] Each condition was repeated in three wells. The treated plate was covered in tin foil and incubated at 37 °C with 5% CO2 for 24 h. Cells were then immunostained with 50 µg mL^−1 Alexa488-conjugated B6-30 anti-rhodopsin antibody. Cells were not exposed to detergents so that cell membranes were kept intact and only rhodopsin on the cell surface was immunostained. Alexa 488 fluorescence was imaged by the ImageExpress (Molecular Devices) high-content imager with a ×20 objective."}, "human rod opsin P267L": {"target": "T2, human rod opsin P267L (Homo sapiens, UniProt P08100, P267L)", "T2 construct": "expressed in transfected cells; host or cells: NIH3T3 cells, transient transfection with pcDNA3.1-hOpsin mutant", "test": "Cell-surface immunostain of rod opsin mutant in transfected NIH3T3 cells", "assay_type": "cell-based", "conditions": "10 µM, 24 h", "method": "as §1"}, "human rod opsin P53R": {"target": "T3, human rod opsin P53R (Homo sapiens, UniProt P08100, P53R)", "T3 construct": "expressed in transfected cells; host or cells: NIH3T3 cells, transient transfection with pcDNA3.1-hOpsin mutant", "test": "Cell-surface immunostain of rod opsin mutant in transfected NIH3T3 cells", "assay_type": "cell-based", "conditions": "10 µM, 24 h", "method": "as §1"}, "human rod opsin D190N": {"target": "T4, human rod opsin D190N (Homo sapiens, UniProt P08100, D190N)", "T4 construct": "expressed in transfected cells; host or cells: NIH3T3 cells, transient transfection with pcDNA3.1-hOpsin mutant", "test": "Cell-surface immunostain of rod opsin mutant in transfected NIH3T3 cells", "assay_type": "cell-based", "conditions": "10 µM, 24 h", "method": "as §1"}, "Abca4−/−Rdh8−/− mice": {"system": "Abca4−/−Rdh8−/− mice", "test": "Bright light-induced retinal degeneration (SD-OCT, HE staining)", "assay_type": "in vivo, mouse", "conditions": "50 or 200 mg kg^−1 bw i.p. 30 min before 10,000 lux for 30 min; day 7", "method": "Abca4^−/−Rdh8^−/− [42] mice with a 129 Sv/Ev or C57BL/6 mixed background were used for light-induced retinal degeneration assays. […] Male and female C57BL/6 mice (Jackson Laboratory, Bar Harbor, ME) at 6 weeks of age were used to test the effects of YC-001 treatment on the retinoid cycle and bw as well as to determine parenterally administrated YC-001 entering the eyes. YC-001 was dissolved in DMSO at 80–160 mg mL^−1, and the solution was provided to mice by i.p. injection. All mice were housed and maintained in a 12 h light (≤10 lux)/12 h dark cycle in the Animal Resource Center at the School of Medicine, CWRU. […]\nRetinal degeneration was initiated by exposing Abca4^−/−Rdh8^−/− mice for 30 min to white light with an intensity of 10,000 lux (150-W spiral lamp, Hampton Bay, Home Depot, Atlanta, GA USA)[43]. […] Retinal structures were analyzed by SD-OCT seven days after bright light exposure. […]\nTo assess the effect of YC-001 treatment on Abca4^−/−Rdh8^−/− mice following bright light-induced retinal degeneration, we performed ultrahigh-resolution SD-OCT (Bioptigen, Morrisville, NC) for in vivo imaging of mouse retinas. […] To measure changes to photoreceptors in the retinas challenged with bright light and assess the effect of YC-001 on retinal protection, the thickness of the ONL was measured along the scanned SD-OCT image at 8 points from the nasal to temporal end of the retina. […]"}, "[1]": {"test": "Quantification of YC-001 in mouse eye by HPLC", "assay_type": "in vivo, C57BL/6 mouse", "method": "To measure the amount of YC-001 in the eye following systemic delivery, YC-001 was administered to C57BL/6 mice by i.p. injection at a dose of 200 mg kg^−1 bw. Mice then were euthanized at 30 min, 3 h and 24 h after these injections, and their eyes were removed for analysis. Eyes from two mice under the same treatment were homogenized on ice in 1 mL of PBS:methanol (1:1 ratio). Four-mL of hexanes were then added to the homogenized sample, and the mixture was vortexed for 15 s. The mixture was centrifuged at 3,220×g for 15 min at 4 °C to separate the hexanes from the aqueous layer. From the top hexane layer, 3.5 mL was transferred to a glass vial. This sample was then dried in a Savant speed vacuum concentrator (Thermofisher, Waltham, Massachusetts, USA) and dissolved in 300 µL methanol. One hundred-µL of dissolved sample were injected into an HPLC system connected to an Agilent Sil column (5 μm, 4.6 × 250 mm; Agilent Technologies, Santa Clara, CA) for separation with 10% ethyl acetate in hexanes at a flow rate 1.4 mL min^−1. A chromatogram of absorption at 340 nm was then obtained. A YC-001 standard was subjected to the same procedures as the ocular samples and used to establish a retention time at 13.2 min. By comparing ocular samples to its standard curve of YC-001, the amount of YC-001 was then quantified in pmol per eye at different time points after its systemic administration. The identity of YC-001 in the peak fraction with a retention time of […] was confirmed by LC–MS using the same chromatography method as applied for HPLC."}}, "data": [{"molecule": "O=C1OCC(c2ccc(Cl)s2)=C1c1cccs1", "note": "[YC-001]", "values": [{"measurement": "cell-surface staining of G106R rod opsin", "setting": "human rod opsin G106R", "result": "increased significantly"}, {"measurement": "cell-surface staining of P267L rod opsin", "setting": "human rod opsin P267L", "result": "increased significantly"}, {"measurement": "cell-surface staining of P53R rod opsin", "setting": "human rod opsin P53R", "result": "not P53R or C110Y mutants increased significantly"}, {"measurement": "cell-surface staining of D190N rod opsin", "setting": "human rod opsin D190N", "result": "increased significantly"}, {"measurement": "protection of the ONL from light-induced damage", "setting": "Abca4−/−Rdh8−/− mice", "result": "dose-dependent protection of the ONL"}, {"measurement": "amount of YC-001 in eye", "setting": "[1]; 0.5 h after i.p. 200 mg kg^−1 bw", "result": "About 70 pmol per eye"}, {"measurement": "amount of YC-001 in eye", "setting": "[1]; 3 h after i.p. 200 mg kg^−1 bw", "result": 280, "unit": "pmol per eye"}, {"measurement": "amount of YC-001 in eye", "setting": "[1]; 24 h after i.p. 200 mg kg^−1 bw", "result": "undetectable"}]}]}
